Experimental data from PubChem BioAssay (NCI).
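In this assay, cells in 96-well plates receive the compound at five concentrations for 48 hours. Endpoints are linearly interpolated between the surrounding concentrations. Abbreviation: GI50, concentration required for 50% inhibition of growth. The concentration for full growth arrest is given as TGI.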

Legend:
Test in all cases: NCI-60 cell line screen, 48 h
[1] = test system: SF-295 CNS
[2] = test system: NCI-H460 lung
[3] = test system: 786-0 renal
[4] = test system: ACHN renal
[5] = test system: HOP-92 NSCLC
[6] = test system: SNB-19 CNS
[7] = test system: LOX IMVI melanoma
[8] = test system: OVCAR-4 ovarian
[9] = test system: HOP-62 NSCLC
[10] = test system: TK-10 renal
[11] = test system: SK-MEL-28 melanoma
[12] = test system: A549 NSCLC
[13] = test system: SF-268 CNS
[14] = test system: SN12C renal
[15] = test system: NCI-H23 lung
[16] = test system: SK-OV-3 ovarian
[17] = test system: MDA-N
[18] = test system: M14 melanoma
[19] = test system: RXF 393 renal
[20] = test system: COLO 205 colon
[21] = test system: MALME-3M melanoma
[22] = test system: SNB-75 CNS
[23] = test system: U251 CNS
[24] = test system: MDA-MB-435
[25] = test system: MCF7 breast
[26] = test system: UACC-257 melanoma
[27] = test system: HS 578T breast
[28] = test system: CCRF-CEM leukemia
[29] = test system: CAKI-1 renal
[30] = test system: KM12 colon
[31] = test system: K-562 leukemia
[32] = test system: UACC-62 melanoma
[33] = test system: HCC-2998 colon
[34] = test system: NCI/ADR-RES ovarian
[35] = test system: MDA-MB-231 breast
[36] = test system: HL-60(TB) leukemia
[37] = test system: T-47D breast
[38] = test system: OVCAR-8 ovarian
[39] = test system: IGROV1 ovarian
[40] = test system: HT29 colon
[41] = test system: HCT-15 colon
[42] = test system: HCT-116 colon
[43] = test system: DU-145 prostate
[44] = test system: NCI-H522 lung
[45] = test system: A498 renal
[46] = test system: OVCAR-5 ovarian
[47] = test system: OVCAR-3 ovarian
[48] = test system: RPMI-8226 leukemia
[49] = test system: SW-620 colon
[50] = test system: SK-MEL-5 melanoma
[51] = test system: MOLT-4 leukemia
[52] = test system: NCI-H226 lung
[53] = test system: SF-539 CNS
[54] = test system: SR leukemia
[55] = test system: EKVX NSCLC
[56] = test system: PC-3 prostate
[57] = test system: SK-MEL-2 melanoma
[58] = test system: BT-549 breast
[59] = test system: UO-31 renal

## CCN(CC)/[N+]([O-])=N/OS(=O)(=O)N(C)C
[1]
  TGI: > 100 µM
[2]
  TGI: > 100 µM
[3]
  TGI: > 100 µM
[4]
  TGI: > 100 µM
[5]
  TGI: > 100 µM
[6]
  TGI: > 100 µM
[7]
  TGI: > 100 µM
[8]
  TGI: > 100 µM
[9]
  TGI: > 100 µM
[10]
  TGI: > 100 µM
[11]
  TGI: > 100 µM
[12]
  TGI: > 100 µM
[13]
  TGI: > 100 µM
[14]
  TGI: > 100 µM
[15]
  TGI: > 100 µM
[16]
  TGI: > 100 µM
[17]
  TGI: > 100 µM
[18]
  TGI: > 100 µM
[19]
  TGI: > 100 µM
[20]
  TGI: > 100 µM
[21]
  TGI: > 100 µM
[22]
  TGI: > 100 µM
[23]
  TGI: > 100 µM
[24]
  TGI: > 100 µM
[25]
  TGI: > 100 µM
[26]
  TGI: > 100 µM
[27]
  TGI: > 100 µM
[28]
  TGI: > 100 µM
[29]
  TGI: > 100 µM
[30]
  TGI: > 100 µM
[31]
  TGI: > 100 µM
[32]
  TGI: > 100 µM
[33]
  TGI: > 100 µM
[34]
  TGI: > 100 µM
[35]
  TGI: > 100 µM
[36]
  TGI: > 100 µM
[37]
  TGI: > 100 µM
[38]
  TGI: > 100 µM
[39]
  TGI: > 100 µM
[40]
  TGI: > 100 µM
[41]
  TGI: > 100 µM
[42]
  TGI: > 100 µM
[43]
  TGI: > 100 µM
[44]
  TGI: > 100 µM
[45]
  TGI: > 100 µM
[46]
  TGI: > 100 µM
[47]
  TGI: > 100 µM
[48]
  TGI: > 100 µM
[49]
  TGI: > 100 µM
[50]
  TGI: > 100 µM
[51]
  TGI: > 100 µM
[52]
  TGI: > 100 µM
[53]
  TGI: > 100 µM
[54]
  TGI: > 100 µM
[55]
  TGI: > 100 µM

## CC1OC(OC2C(OC(=O)[C@]34CCC(C)(C)C[C@H]3C3=CC[C@@H]5[C@@]6(C)CC[C@H](OC7OC(CO)C(O)C(O)C7OC7OC(CO)C(O)C(O)C7O)C(C)(C)[C@@H]6CC[C@@]5(C)[C@]3(C)CC4)OCC(O)C2O)C(O)C(O)C1OC1OCC(O)C(O)C1O (some centres undefined)
[56]
  TGI: 25.8 µM
[1]
  TGI: 25.7 µM
[2]
  TGI: > 67.4 µM
[3]
  TGI: 24 µM
[4]
  TGI: 24.5 µM
[5]
  TGI: 20.4 µM
[6]
  TGI: 28.9 µM
[7]
  TGI: 37.7 µM
[8]
  TGI: 29.5 µM
[9]
  TGI: 30.8 µM
[10]
  TGI: 21.7 µM
[11]
  TGI: 6.04 µM
[12]
  TGI: 19.2 µM
[13]
  TGI: 21.4 µM
[14]
  TGI: 9.27 µM
[15]
  TGI: 24.5 µM
[16]
  TGI: 31.9 µM
[57]
  TGI: 17.2 µM
[18]
  TGI: 16.7 µM
[19]
  TGI: 25.4 µM
[20]
  TGI: 3.28 µM
[21]
  TGI: 12.6 µM
[22]
  TGI: 31 µM
[23]
  TGI: 29.2 µM
[24]
  TGI: 7.34 µM
[25]
  TGI: 29.3 µM
[26]
  TGI: 9.17 µM
[27]
  TGI: 40.2 µM
[28]
  TGI: 42.3 µM
[29]
  TGI: 18.3 µM
[30]
  TGI: 21.8 µM
[31]
  TGI: 27.6 µM
[32]
  TGI: 33.1 µM
[33]
  TGI: 4.79 µM
[34]
  TGI: 29.1 µM
[35]
  TGI: 22.2 µM
[36]
  TGI: 15.1 µM
[37]
  TGI: 42.3 µM
[38]
  TGI: 38.9 µM
[39]
  TGI: 44.9 µM
[40]
  TGI: 19.8 µM
[41]
  TGI: 32.1 µM
[42]
  TGI: 44.8 µM
[43]
  TGI: 24.8 µM
[44]
  TGI: 12.1 µM
[45]
  TGI: 6.06 µM
[46]
  TGI: 21.7 µM
[47]
  TGI: > 100 µM
[48]
  TGI: 31.6 µM
[49]
  TGI: 39.4 µM
[50]
  TGI: 28 µM
[51]
  TGI: 46.3 µM
[58]
  TGI: 23.7 µM
[59]
  TGI: 6.17 µM
[52]
  TGI: 26.2 µM
[53]
  TGI: > 100 µM
[54]
  TGI: 23.8 µM
[55]
  TGI: 18.6 µM

## O=c1c2ccccc2nc2n1CCc1c-2[nH]c2ccccc12
[56]
  TGI: 40.9 µM
[1]
  TGI: 27 µM
[5]
  TGI: 31 µM
[6]
  TGI: 29.2 µM
[8]
  GI50: 18.9 µM
  TGI: 43.8 µM
[10]
  TGI: 63.5 µM
[11]
  TGI: 62.4 µM
[12]
  GI50: 14.5 µM
  TGI: 37.4 µM
[13]
  TGI: 75.2 µM
[15]
  TGI: 37.4 µM
[16]
  TGI: 37.8 µM
[17]
  TGI: 28.5 µM
[18]
  TGI: 32 µM
[19]
  TGI: 34.5 µM
[20]
  TGI: 37.9 µM
[21]
  TGI: 73.7 µM
[22]
  TGI: 40.7 µM
[23]
  TGI: 28.6 µM
[27]
  GI50: 22.6 µM
  TGI: 50.5 µM
[28]
  GI50: 18.9 µM
  TGI: > 100 µM
[29]
  TGI: 47.9 µM
[31]
  TGI: > 100 µM
[34]
  TGI: 61 µM
[36]
  TGI: > 100 µM
[37]
  TGI: 55.5 µM
[38]
  TGI: 71.8 µM
[39]
  TGI: 60.6 µM
[42]
  TGI: 31.3 µM
[43]
  TGI: 33.5 µM
[46]
  TGI: 31.2 µM
[48]
  TGI: > 100 µM
[49]
  TGI: 52.9 µM
[50]
  TGI: 28.6 µM
[51]
  TGI: > 100 µM
[59]
  TGI: 28.1 µM
[54]
  TGI: > 100 µM
[55]
  TGI: 60.5 µM

## C(=NC12CC3CC(CC(C3)C1)C2)C1CCCCC1
[56]
  TGI: > 100 µM
[1]
  TGI: > 100 µM
[2]
  TGI: > 100 µM
[3]
  TGI: > 100 µM
[4]
  TGI: > 100 µM
[5]
  TGI: > 100 µM
[6]
  TGI: > 100 µM
[8]
  TGI: > 100 µM
[9]
  TGI: > 100 µM
[10]
  TGI: > 100 µM
[12]
  TGI: > 100 µM
[13]
  TGI: > 100 µM
[14]
  TGI: > 100 µM
[15]
  TGI: > 100 µM
[17]
  TGI: > 100 µM
[57]
  TGI: > 100 µM
[18]
  TGI: > 100 µM
[19]
  TGI: > 100 µM
[20]
  TGI: > 100 µM
[21]
  TGI: > 100 µM
[22]
  TGI: > 100 µM
[23]
  TGI: > 100 µM
[24]
  TGI: > 100 µM
[25]
  TGI: > 100 µM
[26]
  TGI: > 100 µM
[27]
  TGI: > 100 µM
[28]
  TGI: > 100 µM
[29]
  TGI: > 100 µM
[30]
  TGI: > 100 µM
[31]
  TGI: > 100 µM
[32]
  TGI: > 100 µM
[33]
  TGI: > 100 µM
[34]
  TGI: > 100 µM
[35]
  TGI: > 100 µM
[36]
  TGI: > 100 µM
[38]
  TGI: > 100 µM
[39]
  TGI: > 100 µM
[40]
  TGI: > 100 µM
[41]
  TGI: > 100 µM
[42]
  TGI: > 100 µM
[43]
  TGI: > 100 µM
[44]
  TGI: > 100 µM
[45]
  TGI: > 100 µM
[46]
  TGI: > 100 µM
[47]
  TGI: > 100 µM
[48]
  TGI: > 100 µM
[49]
  TGI: > 100 µM
[50]
  TGI: > 100 µM
[51]
  TGI: > 100 µM
[58]
  TGI: > 100 µM
[59]
  TGI: > 100 µM
[52]
  TGI: > 100 µM
[53]
  TGI: > 100 µM
[54]
  TGI: > 100 µM
[55]
  TGI: > 100 µM
